Measured values reported in patent publication US20050038048A1, “Use of 7h-pyrrollo{2,3-d}pyrimidine derivatives in the treatment of solid tumor diseases” (priority 2001, published 2005).

System: NSCLC
Assay: Treatment of a human patient suffering from NSCLC with PKI166
Format: in vivo
Conditions: 8 weeks, 450 mg/day except on day 2, 16 and 30, partial response = greater than or equal to 50% reduction in measurable or evaluable disease without progression
Experimental: A human patient suffering from NSCLC is treated for a period of 8 weeks with 450 mg/day of PKI166 except on day 2, 16 and 30 on which days no drug is applied.

| Compound | disease response observed after treatment |
| --- | --- |
| C[C@@H](Nc1ncnc2[nH]c(-c3ccc(O)cc3)cc12)c1ccccc1 [PKI166, (R)-6-(4-hydroxy-phenyl)-4-[(1-phenyl-ethyl)-amino]-7H-pyrrolo[2,3-d]pyrimidine] | partial response |

System: not given
Assay: not given
Conditions: not given

| melting point [°C] | Compound |
| --- | --- |
| 253 to 255 | C[C@@H](Nc1ncnc2[nH]c(-c3ccc(CNC4CCOCC4)cc3)cc12)c1ccccc1 [Example 10, ((R)-1-Phenyl-ethyl)-(6-{4-[(tetrahydro-pyran-4-ylamino)-methyl]-phenyl}-7H-pyrrolo[2,3-d]pyrimidin-4-yl)-amine] |
| 208 to 210 | CC1CN(Cc2ccc(-c3cc4c(N[C@H](C)c5ccccc5)ncnc4[nH]3)cc2)CC(C)N1 (stereo partly drawn) [Example 8, {6-[4-(3,5-Dimethyl-piperazin-1-ylmethyl)-phenyl]-7H-pyrrolo[2,3-d]pyrimidin-4-yl}-((R)-1-phenyl-ethyl)-amine] |
| 263 to 265 | C[C@@H](Nc1ncnc2[nH]c(-c3ccc(CN4CCOCC4)cc3)cc12)c1ccccc1 [Example 7, [6-(4-Morpholin-4-ylmethyl-phenyl)-7H-pyrrolo[2,3-d]pyrimidin-4-yl]-((R)-1-phenyl-ethyl)-amine] |
| 222 to 224 | C[C@@H](Nc1ncnc2[nH]c(-c3ccc(CNCCN4CCOCC4)cc3)cc12)c1ccccc1 [Example 9, (6-{4-[(2-Morpholin-4-yl-ethylamino)-methyl]-phenyl}-7H-pyrrolo[2,3-d]pyrimidin-4-yl)-((R)-1-phenyl-ethyl)-amine] |

The remaining lines, values behind:

| Compound | melting point [°C] |
| --- | --- |
| CCN(CC)Cc1ccc(-c2cc3c(N[C@H](C)c4ccccc4)ncnc3[nH]2)cc1 [Example 2, [6-(4-Diethylaminomethyl-phenyl)-7H-pyrrolo[2,3-d]pyrimidin-4-yl]-((R)-1-phenyl-ethyl)-amine] | 246 to 248 |
| C[C@@H](Nc1ncnc2[nH]c(-c3ccc(CN4CCCCC4)cc3)cc12)c1ccccc1 [Example 6, ((R)-1-Phenyl-ethyl)-[6-(4-piperidin-1-ylmethyl-phenyl)-7H-pyrrolo[2,3-d]pyrimidin-4-yl]-amine] | 246 to 248 |
| C[C@@H](Nc1ncnc2[nH]c(-c3ccc(CN4CCCC4)cc3)cc12)c1ccccc1 [Example 4, ((R)-1-Phenyl-ethyl)-[6-(4-pyrrolidin-1-ylmethyl-phenyl)-7H-pyrrolo[2,3-d]pyrimidin-4-yl]-amine] | 254 to 256 |
| C[C@@H](Nc1ncnc2[nH]c(-c3ccc(CN4CCN(C)CC4)cc3)cc12)c1ccccc1 [Example 1, {6-[4-(4-Methyl-piperazin-1-ylmethyl)-phenyl]-7H-pyrrolo[2,3-d]pyrimidin-4-yl}-((R)-1-phenyl-ethyl)-amine] | 248 to 250 |
| C[C@@H](Nc1ncnc2[nH]c(-c3ccc(CN(C)C)cc3)cc12)c1ccccc1 [Example 5, [6-(4-Dimethylaminomethyl-phenyl)-7H-pyrrolo[2,3-d]pyrimidin-4-yl]-((R)-1-phenyl-ethyl)-amine] | 241 to 243 |

System: renal cell cancer
Assay: Treatment of a human patient suffering from renal cell cancer with PKI166
Format: in vivo
Conditions: 16 weeks in 4 cycles of 600 mg daily for two weeks followed by 2 weeks without drug, stable disease = less than 50% decrease or less than 25% increase in measurable or evaluable disease
Experimental: A human patient suffering from renal cell cancer is treated for a period of 16 weeks in 4 cycles consisting of administration of 600 mg of PKI166 daily for two weeks followed by 2 weeks without administering the drug. […] A human patient suffering from renal cell cancer is treated for a period of 16 weeks with 400 mg of PKI166 on Monday, Wednesday and Friday of each week.

| Compound | disease response observed during treatment |
| --- | --- |
| C[C@@H](Nc1ncnc2[nH]c(-c3ccc(O)cc3)cc12)c1ccccc1 [PKI166, (R)-6-(4-hydroxy-phenyl)-4-[(1-phenyl-ethyl)-amino]-7H-pyrrolo[2,3-d]pyrimidine] | stable disease |

Same assay, conditions: 16 weeks, 400 mg on Monday, Wednesday and Friday of each week, stable disease = less than 50% decrease or less than 25% increase in measurable or evaluable disease

| Compound | disease response observed during treatment |
| --- | --- |
| C[C@@H](Nc1ncnc2[nH]c(-c3ccc(O)cc3)cc12)c1ccccc1 [PKI166, (R)-6-(4-hydroxy-phenyl)-4-[(1-phenyl-ethyl)-amino]-7H-pyrrolo[2,3-d]pyrimidine] | stable disease |
